Like-named read-outs stand apart in the source and are kept apart here.
Experiments:
Human sEH (HsEH) = target: T1, Human sEH (HsEH) (Homo sapiens, UniProt P34913); assay: Inhibition of recombinant human sEH (HsEH); format: biochemical; details: HsEH 0.26 μM
T1 sequence (P34913 1-555): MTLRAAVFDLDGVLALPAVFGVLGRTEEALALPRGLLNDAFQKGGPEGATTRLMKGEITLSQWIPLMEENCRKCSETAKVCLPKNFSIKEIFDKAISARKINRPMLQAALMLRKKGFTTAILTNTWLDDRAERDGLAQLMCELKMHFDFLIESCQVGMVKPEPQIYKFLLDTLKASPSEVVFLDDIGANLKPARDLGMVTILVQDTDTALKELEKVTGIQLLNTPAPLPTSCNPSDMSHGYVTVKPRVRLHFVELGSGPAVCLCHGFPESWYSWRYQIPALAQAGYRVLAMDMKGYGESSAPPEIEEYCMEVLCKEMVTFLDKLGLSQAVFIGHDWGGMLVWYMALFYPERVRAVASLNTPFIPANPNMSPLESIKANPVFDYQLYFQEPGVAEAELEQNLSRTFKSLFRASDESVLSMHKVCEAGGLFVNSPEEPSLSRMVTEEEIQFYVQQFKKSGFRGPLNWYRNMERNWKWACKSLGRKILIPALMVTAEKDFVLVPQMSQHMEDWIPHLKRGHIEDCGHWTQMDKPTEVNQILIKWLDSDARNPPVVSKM

[1] = target: T2, recombinant mouse sEH (MsEH) (Mus musculus, UniProt P34914); assay: Inhibition of recombinant mouse sEH (MsEH); format: biochemical
T2 sequence (P34914 1-554): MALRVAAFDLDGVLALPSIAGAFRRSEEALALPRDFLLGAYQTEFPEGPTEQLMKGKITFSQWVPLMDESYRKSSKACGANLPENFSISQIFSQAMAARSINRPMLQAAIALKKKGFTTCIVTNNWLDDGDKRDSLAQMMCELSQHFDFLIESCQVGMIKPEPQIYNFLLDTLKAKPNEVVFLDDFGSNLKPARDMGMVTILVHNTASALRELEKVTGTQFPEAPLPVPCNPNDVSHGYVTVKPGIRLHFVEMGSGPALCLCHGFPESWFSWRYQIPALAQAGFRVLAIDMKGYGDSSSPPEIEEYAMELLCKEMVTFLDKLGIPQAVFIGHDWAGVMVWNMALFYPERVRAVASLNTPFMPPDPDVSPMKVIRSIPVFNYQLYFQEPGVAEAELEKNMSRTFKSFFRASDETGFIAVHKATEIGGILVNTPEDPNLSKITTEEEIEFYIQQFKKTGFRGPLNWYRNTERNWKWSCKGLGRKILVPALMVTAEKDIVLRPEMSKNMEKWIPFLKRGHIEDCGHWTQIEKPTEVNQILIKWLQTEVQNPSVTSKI

[2] = Table 1, MsEH 0.13 μM, read-out: Mouse sEH IC50
[3] = Table 2, MsEH 0.13 μM, read-out: Mouse sEH IC50

Row | IC50 (Human sEH (HsEH); Table 1) [nM] | IC50 [1, 2] [nM] | IC50 (Human sEH (HsEH); Table 2) [nM] | IC50 [1, 3] [nM] | Compound | IC50 [1] [nM]
1 | 100 ± 10 | 50 ± 10 |  |  | O=C(Nc1ccc(Oc2ccccc2)cc1)NC1CCCCC1 [compound 140] | 
2 | 740 ± 70 | 200 ± 20 |  |  | CCCCCCCCCCCNC(=O)NCCCC [compound 556] | 
3 | 3770 ± 30 | 390 ± 20 |  |  | CCOC(CCCNC(=O)Nc1cccc(Cl)c1)OCC [compound 167] | 
4 | 100 ± 10 | 50 ± 10 |  |  | O=C(NC1CCCCCCCCCCC1)NC12CC3CC(CC(C3)C1)C2 [compound 413] | 
5 | 160 ± 20 | 60 ± 10 |  |  | O=C(NCCc1ccccc1)NC1CCCCC1 [compound 36] | 
6 | 110 ± 10 | 180 ± 10 |  |  | CC(C)(C)CC(C)(C)NC(=O)NC1C2CC3CC(C2)CC1C3 (centres unmarked) [compound 375] | 
7 | 680 ± 30 | 60 ± 10 |  |  | O=C(CCCCc1ccccc1)NC1CCCCC1 [compound 381] | 
8 | 1710 ± 230 | 520 ± 20 |  |  | CCCCCCCCNC(=O)NC1CCC1 [compound 181] | 
9 | 1000 ± 200 | 50 ± 10 |  |  | COc1ccc(CCNC(=O)NC2CCCCC2)cc1OC [compound 384] | 
10 | 430 ± 20 | 780 ± 20 |  |  | O=C(Nc1ccc(F)cc1)NC1CCCCC1 [compound 60] | 
11 |  |  | 1360 ± 70 | 480 ± 50 | COC(c1ccccc1)C1OC1c1ccc(-c2ccccc2)cc1 (racemic) [R=4-C6H5—C6H4, R′=C6H5, X—Y=CH—OCH3, ±] | 
12 | 270 ± 20 | 60 ± 10 |  |  | CC(=O)c1ccc(NC(=O)NC2CCCCC2)cc1 [compound 126] | 
13 | 1000 ± 200 | 800 ± 30 |  |  | CCCNC(=O)NC1CCCCCCCCCCC1 [compound 189] | 
14 | 100 ± 10 | 90 ± 10 |  |  | CCCCCCNC(=O)Nc1ccc(C(C)C)cc1 [compound 287] | 
15 | 570 ± 10 | 1000 ± 100 |  |  | CCCCCCNC(=O)Nc1ccc2ccccc2c1 [compound 143] | 
16 | 1700 ± 400 | 380 ± 40 |  |  | CCCCCCCCCNC(=O)NCCC [compound 429] | 
17 | 5000 ± 100 | 600 ± 60 |  |  | CCC(C)NC(=O)NC1CCCCC1 (centres unmarked) [compound 479] | 
18 | 100 ± 10 | 50 ± 10 |  |  | O=C(NCCC1CCCCC1)NC1CCCCC1 [compound 360] | 
19 | 100 ± 10 | 60 ± 10 |  |  | CC(C)c1ccc(NC(=O)NCC2CCCCC2)cc1 [compound 180] | 
20 | 480 ± 10 | 110 ± 10 |  |  | CCCCCCCCNC(=O)OC [compound 72] | 
21 | 240 ± 10 | 110 ± 10 |  |  | CCCCCCCCCCCCCCNC(=O)NC1CCCCC1 [compound 477] | 
22 | 160 ± 10 | 60 ± 10 |  |  | O=C(NCC1CCCCC1)NC1CCCCC1 [compound 57] | 

Row | IC50 (Human sEH (HsEH); Table 1) [nM] | IC50 [1, 2] [nM] | IC50 (Human sEH (HsEH); Table 2) [nM] | IC50 [1, 3] [nM] | Compound | IC50 [1] [nM]
23 | 1390 ± 20 | 760 ± 20 |  |  | O=C(Nc1ccccc1)NC1CCCCC1 [compound 21] | 
24 | 2500 ± 80 | 50 ± 10 |  |  | O=C(NCCCCCCO)NC1CCCCC1 [compound 344] | 
25 | 200 ± 20 | 70 ± 20 |  |  | O=C(NCCc1ccc(Cl)cc1)NC1CCCCC1 [compound 361] | 
26 | 680 ± 30 | 730 ± 30 |  |  | CCCCCCCCNC(=O)NCCC [compound 380] | 
27 | 480 ± 10 | 200 ± 10 |  |  | CC(C)c1ccc(NC(=O)NCCc2ccccc2)cc1 [compound 156] | 
28 | 100 ± 10 | 50 ± 10 |  |  | CCCCCCCNC(=O)NC1CCCCC1 [compound 508] | 
29 | 610 ± 20 | 210 ± 10 |  |  | CCCCCCCCCCNC(=O)Nc1ccccc1 [compound 148] | 
30 | 100 ± 10 | 50 ± 10 |  |  | O=C(NCC12CC3CC(CC(C3)C1)C2)NC12CC3CC(CC(C3)C1)C2 [compound 412] | 
31 | 580 ± 30 | 50 ± 10 |  |  | O=C(NCCCCc1ccccc1)NC1CCCCC1 [compound 105] | 
32 | 190 ± 10 | 50 ± 10 |  |  | O=C(NCc1ccc(Cl)cc1)NC1CCCCC1 [compound 193] | 
33 | 100 ± 40 | 50 ± 10 |  |  | O=C(NC(=O)c1ccc(Cl)cc1)NC1CCCCC1 [compound 257] | 
34 | 170 ± 10 | 130 ± 10 |  |  | Cc1ccc(NC(=O)NC2CCCCC2)cc1 [compound 108] | 
35 | 920 ± 80 | 60 ± 10 |  |  | CCCCCNC(=O)NC1CCCCC1 [compound 509] | 
36 | 5900 ± 300 | 1060 ± 70 |  |  | CCCCCCCCNC(=O)NC(C)C [compound 183] | 
37 | 100 ± 10 | 60 ± 10 |  |  | N#Cc1ccc(NC(=O)NC2CCCCC2)cc1 [compound 118] | 
38 | 2030 ± 70 | 250 ± 10 |  |  | O=C(NCC1CCCCC1)C1CCCCC1 [compound 374] | 
39 |  |  | 18000 ± 2000 | 72000 ± 16000 | OC(c1ccccc1)C1OC1c1ccc(F)cc1 (racemic) [R=4-F-C6H4, R′=C6H5, X—Y=CH—OH, ±] | 
40 | 140 ± 10 | 80 ± 10 |  |  | O=C(Nc1c2ccccc2nc2ccccc12)NC1CCCCC1 [compound 559] | 
41 | 100 ± 10 | 50 ± 10 |  |  | C[C@H](NC(=O)NC1CCCCC1)c1ccccc1 [compound 544] | 
42 | 1690 ± 50 | 100 ± 10 |  |  | O=C(NC1CCCCC1)NC1CCCC1 [compound 23] | 
43 | 180 ± 10 | 50 ± 10 |  |  | Cc1cccc(C)c1NC(=O)NC1CCCCC1 [compound 435] | 
44 | 250 ± 10 | 310 ± 10 |  |  | CCCCCCNC(=O)Nc1cccc(Cl)c1 [compound 178] | 

Row | IC50 (Human sEH (HsEH); Table 1) [nM] | IC50 [1, 2] [nM] | IC50 (Human sEH (HsEH); Table 2) [nM] | IC50 [1, 3] [nM] | Compound | IC50 [1] [nM]
45 | 100 ± 10 | 50 ± 10 |  |  | O=C(O)CCCCCCCCCCCNC(=O)NC1CCCCC1 [compound 425] | 
46 |  |  | 310 ± 20 | 2300 ± 400 | [O-][S+](c1ccccc1)C1OC1c1ccccc1 (racemic) [R=C6H5, R′=C6H5, X—Y=S═O, ±] | 
47 | 4300 ± 400 | 2300 ± 300 |  |  | O=C(NCc1ccc([N+](=O)[O-])cc1)NC1CCCCC1 [compound 341] | 
48 | 17800 ± 700 | 700 ± 100 |  |  | O=C(NCCCN1CCOCC1)NC1CCCCC1 [compound 377] | 
49 |  |  | 22000 ± 2000 | 12600 ± 900 | OC(c1ccccc1)C1OC1c1ccccc1 (racemic) [R=C6H5, R′=C6H5, X—Y=CH—OH, ±] | 
50 | 180 ± 10 | 100 ± 20 |  |  | O=C(NC1CCCCC1)OCCCCc1ccc([N+](=O)[O-])cc1 [compound 460] | 
51 |  |  | 269000 ± 5000 | 163000 ± 11000 | CC(=O)C1OC1c1ccc([N+](=O)[O-])cc1 (racemic) [R=4-NO2—C6H4, R′=CH3, X—Y=C═O, ±] | 
52 | 1500 ± 100 | 50 ± 10 |  |  | Nc1ccc(CNC(=O)NC2CCCCC2)cc1 [compound 379] | 
53 | 100 ± 10 | 50 ± 10 |  |  | O=C(NCCCc1ccccc1)NC12CC3CC(CC(C3)C1)C2 [compound 438] | 
54 | 110 ± 10 | 170 ± 10 |  |  | O=C(Nc1ccc(Br)cc1)NC1CCCCC1 [compound 65] | 
55 | 70 ± 20 | 110 ± 30 |  |  | CCCCCCNC(=O)NC1CCCCC1 [compound 286] | 
56 | 8300 ± 400 | 900 ± 70 |  |  | O=C(NCCNc1ccccc1)NC1CCCCC1 [compound 463] | 
57 | 100 ± 10 | 60 ± 10 |  |  | CCCCCCCCCCNC(=O)NC1CCCCC1 [compound 153] | 
58 |  |  | 34000 ± 1000 | 103000 ± 5000 | COC(c1ccccc1)C1OC1c1ccccc1 (racemic) [R=C6H5, R′=C6H5, X—Y=CH—OCH3, ±] | 
59 | 550 ± 30 | 210 ± 20 |  |  | O=C(NCCCc1ccccc1)Nc1ccccc1 [compound 430] | 
60 | 100 ± 10 | 50 ± 10 |  |  | CCCCCCCCCCCCCNC(=O)NC1CCCCC1 [compound 354] | 
61 | 100 ± 10 | 60 ± 10 |  |  | O=C(NC1CCCCC1)OC1C2CC3CC(C2)CC1C3 (centres unmarked) [compound 260] | 
62 |  |  | 300 ± 100 | 1300 ± 300 | O=C(c1ccccc1)C1OC1c1ccc(F)cc1 (racemic) [R=4-F-C6H4, R′=C6H5, X—Y=C═O, ±] | 
63 | 100 ± 10 | 50 ± 10 |  |  | O=C(NC12CC3CC(CC(C3)C1)C2)NC12CC3CC(CC(C3)C1)C2 [compound 411] | 
64 | 100 ± 10 | 50 ± 10 |  |  | O=C(NCC1CCCCC1)NC12CC3CC(CC(C3)C1)C2 [compound 437] | 

Row | Compound | IC50 (Human sEH (HsEH); Table 1) [nM] | IC50 [1, 2] [nM] | IC50 (Human sEH (HsEH); Table 2) [nM] | IC50 [1, 3] [nM] | IC50 [1] [nM]
65 | CCCCCCCCNC(=O)Nc1ccccc1 [compound 151] | 580 ± 10 |  |  |  | 2290 ± 30
66 | CCCCCCCCCCCCNC(=O)NC1CCCCC1 [compound 297] | 100 ± 10 | 50 ± 10 |  |  | 
67 | CCCCCCCCCCOC(=O)NC [compound 248] | 2900 ± 600 |  |  |  | 330 ± 50
68 | O=C(NC1CCCCC1)Oc1ccc2ccccc2c1 [compound 110] | 350 ± 10 |  |  |  | 210 ± 10
69 | O=C(Nc1ccc(Cl)cc1)Nc1ccc(Cl)c(Cl)c1 | 120 ± 10 |  |  |  | 360 ± 20
70 | O=C(NC1CCCCC1)Oc1ccccc1CO [compound 224] | 320 ± 80 |  |  |  | 990 ± 20

From patent US6756210B2, “Linoleic acid diol and glucuronide conjugate levels as diagnostic markers of disorders of abnormal regulation of cytochrome P450 metabolism of unsaturated fatty acids” (The Regents of the University of California, priority 2001, dated 2004)
